Values quoted from earlier work, collected in patent US20080102106A1, “Wound Healing Composition Comprising Substances From Diptera Larvae” (ALPHA-BIOCARE GMBH, priority 2005, published 2008).

Settings: many cases of use in humans, dermatological studies

Compound | wound healing effect
NC(=O)NC1NC(=O)NC1=O (stereo not drawn) [allantoin] | do not have any wound healing effect
NC(N)=O [urea] | do not have any wound healing effect
N [ammonium] | do not have any wound healing effect
